Where “and” joins values, the source holds several entries; their conditions need not be identical. Equal entries are not always repeated.
Experiments:
Type in all cases: cell-based
[1] = test system: MCF7 cells; assay: Cell cycle analysis (propidium iodide, Apo-Direct kit, flow cytometry); settings: for concentration from which the increase of cells in G2/M phase was evident: MCF7, 24 h; for effect on cell cycle distribution: MCF7, increasing concentrations 24 h or time-course; for time of significant decrease in the G0/G1 phase / treatment time after which an increase in G2/M phase was found: MCF7, time-course, 15 μM compound 5 or 30 μM compound 15
Experimental: Cell cycle arrest is the target of many anticancer drugs, as it is the first step to decrease cell proliferation. To gain a better understanding of the mechanism of these compounds, the effect of compounds 5 and 15 on cell cycle distribution was analyzed. MCF7 cells were treated with increasing concentrations of both compounds for 24 h or with 15 μM 5 or 30 μM 15 for different times. The negative control was treated with vehicle, and camptothecin (6 μM) was used as a positive control. Samples were stained with propidium iodide using the Apo-Direct kit (BD Pharmingen, Madrid, Spain) and processed by flow cytometry.
3 × 10^6 or 2 × 10^6 MCF7 cells were seeded in 25 cm^2 flasks for treatments up to 24 h or 48 h, respectively. DMSO (vehicle) or the dissolved compounds were added 24 h after seeding and cells were incubated for different times at 37 °C under 5% CO2. Cell cycle and cell death were analyzed simultaneously with the Apo-Direct kit (BD Pharmingen, Madrid, Spain), following the manufacturer’s protocol. Briefly, cells were fixed in 1% paraformaldehyde for 45 min at 0 °C, washed with PBS and incubated for at least 30 min in 70% ethanol on ice. Cells were then stained both with FITC-dUTP (1 h, 37 °C) and propidium iodide (30 min, room temperature) and analyzed by flow cytometry using a Coulter Epics XL cytometer (Beckman Coulter, Brea, CA, USA).
Figure 4 Compounds 5 and 15 induce cell cycle arrest in G2/M phase in MCF7. MCF7 cells were treated with different concentrations of compound 5, 15 or vehicle (control) for 24 h or for different time periods. Cells were stained with propidium iodide with the Apo-Direct kit and analyzed by flow cytometry. (A) Quantification of cell cycle distribution after 24 h treatment with increasing concentrations of compound 5; (B) Representative experiment of A; (C) Quantification of cell cycle distribution after 24 h treatment with increasing concentrations of compound 15; (D) Representative experiment of C; (E) Cell cycle distribution after treatment with vehicle, 15 μM of compound 5 or 30 μM of compound 15 for different times. Results represent the mean ± SEM of at least three independent experiments performed in duplicate. * p < 0.05, ** p < 0.01.

[2] = test system: K-562 (chronic myelogenous leukemia); assay: MTT viability assay, K-562; settings: K-562, 72 h, MTT; for CC50: read-out: LC50 (the source's name)
Experimental: (§1) The novel compounds were tested against a panel of different cancer lines: PC-3 (prostate adenocarcinoma), MCF7 (mammary adenocarcinoma), HTB-54 (lung carcinoma), K-562 (chronic myelogenous leukemia) and HT-29 (colorectal adenocarcinoma). Two non-malignant cell lines, BEAS-2B (bronchial epithelial) and 184B5 (mammary epithelial) were also included to evaluate the toxicity of the novel synthesized compounds. The antiproliferative activity was measured with the [3-(4,5-dimethylthiazol-2-yl)-2,5-diphenyltetrazolium bromide] (MTT) assay after 72 h treatment. Six concentrations ranging from 0.1 to 100 μM were tested. MSA is largely known as the main CH3SeH putative precursor and was therefore included as positive control. The following parameters were calculated: GI50 (concentration which reduces the growth by 50%), TGI (concentration completely inhibiting growth) and LC50 (concentration that kills 50% of the cells).
(§2) All cells were purchased from the American Type Culture Collection (ATCC, Barcelona, Spain). HT-29 (colorectal adenocarcinoma), HTB-54 (grade III lung carcinoma), MCF7 (mammary adenocarcinoma), PC-3 (grade IV prostate adenocarcinoma) and K-562 (chronic myelogenous leukemia) were cultured in RPMI (Gibco, Madrid, Spain), 10% FBS (Gibco), 100 units/mL penicillin and 100 μg/mL streptomycin (Gibco). BEAS-2B cell line (normal epithelial lung) was cultured in DMEM (Gibco), 10% FBS, 100 units/mL penicillin and 100 μg/mL streptomycin. 184B5 (normal mammary gland) cell line was cultured in DMEM:F12 supplemented with 5% FBS, 1 × ITS (Lonza, Barcelona, Spain), 100 nM hydrocortisone (Sigma-Aldrich), 2 mM sodium pyruvate (Lonza), 20 ng/mL EGF (Sigma-Aldrich), 0.3 nM trans-retinoic acid (Sigma-Aldrich), 100 units/mL penicillin and 100 µg/mL streptomycin. Cells were cultured at 37 °C under 5% CO2.
(§3) Cell viability after treatment was assessed by the well-known 3-(4,5-dimethyl-thiazol-2-yl)-2,5-diphenyltetrazolium bromide (MTT, Sigma-Aldrich) assay. Briefly, 10,000 cells were seeded in 96-well plates, treated and incubated for 72 h. Dilutions of the compounds in cell medium were freshly prepared from a 0.01 M stock in DMSO. After treatment, 50 μL of MTT solution in PBS (2 mg/mL) were added and cells were incubated for 4 h. Medium was removed and 150 μL of DMSO was added to dissolve the formed formazan crystals. Absorbance was read at 550 nm in a microplate absorbance reader (Sunrise, Tecan, Männedorf, Switzerland).

[3] = test system: 184B5 (non-malignant mammary epithelium); assay: MTT viability assay, 184B5; settings: 184B5 non-malignant, 72 h, MTT; for CC50: read-out: LC50 (the source's name)
Experimental: as §1, §2, §3

[4] = test system: HTB-54 (lung carcinoma); assay: MTT viability assay, HTB-54; settings: HTB-54, 72 h, MTT; for CC50: read-out: LC50 (the source's name)
Experimental: as §1, §2, §3

[5] = test system: MCF7 (mammary adenocarcinoma); assay: MTT viability assay, MCF7; settings: MCF7, 72 h, MTT; for CC50: read-out: LC50 (the source's name)
Experimental: as §1, §2, §3

Row | Substance | concentration from which the increase of cells in G2/M phase was evident [1] | effect on cell cycle distribution [1] | time of significant decrease in the G0/G1 phase [1] | treatment time after which an increase in G2/M phase was found [1] | GI50 [2] | TGI [2] | CC50 [2] | GI50 [3] | TGI [3] | CC50 [3] | GI50 [4] | TGI [4] | CC50 [4] | GI50 [5] | TGI [5] | CC50 [5]
1 | Dimethyl 2,5-furandicarboselenoate [Compound 15] | ≥ 7 µM | increased the percentage of cells in G2/M phase | 16 h | 8 h | 42 ± 3.8 µM | 70.6 ± 3.4 µM | 99.2 ± 5.3 µM | 3.5 ± 1.1 µM | 6.4 ± 0.5 µM | 9.2 ± 0.9 µM | > 10 µM and 15.6 µM | 46.0 ± 3.0 µM | 76.3 ± 1.1 µM | 1.8 ± 0.9 µM | 7.2 ± 1.9 µM | 57 ± 4 µM
2 | Methyl 3-chlorothiophen-2-carboselenoate [Compound 5] | ≥ 15 µM | increased the percentage of cells in G2/M phase | 8 h | 8 h | 38.7 ± 2.1 µM | 67.0 ± 1.9 µM | 95.2 ± 2.2 µM | 3.5 ± 0.4 µM | 5.9 ± 0.3 µM | 8.3 ± 0.2 µM | 4.9 ± 0.2 µM | – | 61.5 ± 3.2 µM | 3.1 ± 0.9 µM | 6.9 ± 1.1 µM | 35.9 ± 4.4 µM

— publication PMC6152192, “Novel Methylselenoesters as Antiproliferative Agents” (Molecules : A Journal of Synthetic Chemistry and Natural …, 2017)
